Like-named read-outs stand apart in the source and are kept apart here.
Key:
[1] = system: U937 cells; assay: Inhibitory activity against TNF-α induced programmed cell necrosis (U937 cells, CellTiter-Glo); assay type: cell-based, human; conditions: U937 cells, human TNF-α and Q-VD-Oph induced necrosis, 48 hours, survival rate, read-out: U937 IC50
[2] = system: L929 cells; assay: Inhibitory activity against TNF-α induced programmed necrosis of L929 cells (CellTiter-Glo); assay type: cell-based; conditions: Mus musculus, 30 ng/ml murine TNF-α and 15 μM Z-VAD, 6 hours, survival rate
Description: The U937 cell line used in the following test examples is from ATCC, with the number of CRL-1593.2, batch number of 63479999, and the culture medium of RPMI-1640+10% FBS. The L929 cell line used in the following test examples is from ATCC, with the number of CCL-1, batch number of 70001022, and the culture medium of MEM+10% FBS+1% PS. The reagents used, and suppliers and article numbers thereof are as follows: RPMI-1640, Gibco, 11875-093; FBS, Gibco, 10099-141; Trypsin-EDTA, Gibco, 25200-072; PS, Gibco, 15140-122; CellTiter Glo, Progema, G7573; DMSO, VWR AMRESCO, 0231-500ML; TNF-α protein (human, recombinant), Peprotech, 300-01A; Q-VD-Oph, MCE, HY-12305; V-shaped bottom plate, Corning, 3894; 384 well low flange white flat bottom polystyrene TC-treated microplates, Corning, 3570; RIPK1, Eurofins, 16-022; MOPS, BDH, 441644J; EDTA, Sigma, E5134; myelin basic protein, Sigma, M1891-25.00 MG; magnesium acetate, Merck, DU008026; ATP (non-radioactive label), Sigma, A-7699; ATP (radioactive label), Hartmann Analytic, DU008054; phosphoric acid, Metlab, DU003000; Z-VAD: Shanghai Twochem Co., Ltd., YA02401.
The compounds to be tested was dissolved in DMSO and prepared as a 10 mM stock solution, which was diluted 3.16 times with DMSO to form a series of concentration gradients, and then diluted 100 times with culture medium to make a working solution. 10,000 L929 cells/well were seeded on a 384-well white plate, and the corresponding concentration of compound was added to each well to mix with the cells uniformly. At the same time, 30 ng/ml murine TNF-α and 15 μM Z-VAD were added to induce programmed necrosis of the cells. The final concentration of DMSO was 0.2%, and the cells were placed in a 37° C., 5% CO2 incubator for further incubation for 6 hours. CellTiter-Glo reagent was used for detection. After the reaction was fully lysed, the chemiluminescence readings was detected by a microplate reader. The test results were calculated using the formula for survival rate: SR (%)=(RLU compound−RLU blank)/(RLU high control-RLU blank)×100%. The survival rate and the final concentration of the corresponding compound were plotted as a curve, and fitted using a four-parameter model to calculate the inhibitory IC50 of compounds on TNF-α-induced programmed cell necrosis.

`Nc1nc2cc(-c3cnc4c(c3)C(=O)N(Cc3cccnc3OC3CCCC3)CC4)ccn2n1` [Z47, 3-(2-amino-[1,2,4]triazole[1,5-a]pyridyl-7-yl)-6-((2-(cyclopentyloxy)pyridyl-3-yl)methyl)-7,8-dihydro-1,6-naphthyridin-5(6H)-one] showed an IC50 ([1]; Homo sapiens, U-937, 48 h) of 3 nM and an IC50 [2] of 5.1 nM.
For `Nc1nc2cc(-c3cnc4c(c3)C(=O)N(Cc3cc(F)ccc3OC3CCCC3)CC4)ccn2n1` [Z45, 3-(2-amino-[1,2,4]triazolo[1,5-a]pyridyl-7-yl)-6-(2-(cyclopentyloxy)-5-fluorobenzyl)-7,8-dihydro-1,6-naphthyridin-5(6H)-one], the IC50 ([1]; Homo sapiens, U-937, 48 h) was 0.2 nM and the IC50 [2] was 1.3 nM.
`CC(=O)Nc1cn2nc(-c3cnc4c(c3)C(=O)N(Cc3ccccc3OC(F)(F)F)CC4)ccc2n1` [Z5, N-(6-(5-oxo-6-(2-(trifluoromethoxy)benzyl)-5,6,7,8-tetrahydro-1,6-naphthyridin-3-yl)imidazo[1,2-b]pyridazin-2-yl)acetamide] gave an IC50 ([1]; Homo sapiens, U-937, 48 h) of 46.7 nM and an IC50 [2] of 8 nM.
`CC(c1ccc(F)cc1)n1cc(N2CCc3ncc(-c4cc(C(F)(F)F)c5c(N)ncnn45)cc3C2=O)cn1` (stereo not drawn) [Z35] showed an IC50 ([1]; Homo sapiens, U-937, 48 h) of 0.3 nM.
In the case of `Nc1nc2cc(-c3cnc4c(c3)C(=O)N(Cc3cc(F)ccc3OC3CC3)CC4)ccn2n1` [Z76], the IC50 ([1]; Homo sapiens, U-937, 48 h) is reported as 4.1 nM.
`CC(C)(O)C(=O)N1CC(F)C(N2CCc3ncc(-c4cc(C(F)(F)F)c5c(N)ncnn45)cc3C2=O)C1` (stereo not drawn) [Z33, cis-3-(4-amino-5-(trifluoromethyl)pyrrolo[2,1-f][1,2,4]triazin-7-yl)-6-(4-fluoro-1-(2-hydroxy-2-methylpropionyl)pyrrolidin-3-yl)-7,8-dihydro-1,6-naphthyridin-5(6H)-one] was tested, and the IC50 ([1]; Homo sapiens, U-937, 48 h) was 338 nM.
With `Nc1nc2cc(-c3cnc4c(c3)C(=O)N(Cc3cc(C(F)(F)F)ccc3F)CC4)ccn2n1` [Z72] the IC50 ([1]; Homo sapiens, U-937, 48 h) was 82 nM.
For `CC(=O)Nc1nc2cc(-c3cnc4c(c3)C(=O)N(C(C)c3ccccc3OC(F)(F)F)CC4)ccn2n1` (stereo not drawn) [Z49, N-(7-(5-oxo-6-(1-(2-(trifluoromethoxy)phenyl)ethyl)-5,6,7,8-tetrahydro-1,6-naphthyridin-3-yl)-[1,2,4]triazolo[1,5-a]pyridyl-2-yl)acetamide], the IC50 [1] was 26 nM.
Molecule `CC(c1ccccc1OC(F)(F)F)N1CCc2ncc(-c3ccn4nc(N)nc4c3)cc2C1=O` (stereo not drawn) [Z46, 3-(2-amino-[1,2,4]triazolo[1,5-a]pyridyl-7-yl)-6-(1-(2-(trifluoromethoxy)phenyl)ethyl)-7,8-dihydro-1,6-naphthyridin-5(6H)-one] has an IC50 ([1]; U-937) of 7 nM.
